Assay results taken from ChEMBL document CHEMBL1154196, “Synthesis and evaluation of (S,S)-N,N'-bis-[3-(2,2',6,6'-tetramethylbenzhydryloxy)-2-hydroxy-propyl]-ethylenediamine (S2824) analogs with anti-tuberculosis activity” (2009).
In brackets after ≈: the same amount, converted by molar mass.

Columns and labels:
[1] = test system: Mycobacterium tuberculosis; test: Antitubercular activity against isoniazid, rifampin, ethambutol, streptomycin-resistant Mycobacterium tuberculosis by radiometric BACTEC460 method; assay type: functional
[2] = test system: Mycobacterium tuberculosis; test: Antitubercular activity against isoniazid, rifampin-resistant Mycobacterium tuberculosis by radiometric BACTEC460 method; assay type: functional

| SMILES | MIC [1] | MIC [2] |
| --- | --- | --- |
| Cc1ccc(C(OC[C@H](O)CN2CCN(C[C@@H](O)COC(c3ccc(C)cc3)c3ccc(C)cc3)CC2)c2ccc(C)cc2)cc1 | 6.25 µg/mL (≈ 10 µM) | 6.25 µg/mL (≈ 10 µM) |
| Cc1ccc(C(OC[C@@H](O)CN2CCCN(C[C@H](O)COC(c3ccc(C)cc3)c3ccc(C)cc3)CC2)c2ccc(C)cc2)cc1 | 0.78 µg/mL (≈ 1.22 µM) | 1.56 µg/mL (≈ 2.45 µM) |
| Cc1ccc(C(OC[C@H](O)CN2CCCN(C[C@@H](O)COC(c3ccc(C)cc3)c3ccc(C)cc3)CC2)c2ccc(C)cc2)cc1 | 1.56 µg/mL (≈ 2.45 µM) | 1.56 µg/mL (≈ 2.45 µM) |
| CC[C@@H](CO)NCCN[C@@H](CC)CO [ETHAMBUTOL] | > 12.5 µg/mL | 3.13 µg/mL (≈ 15.3 µM) |
